In patent US9615577B2, “Herbicidally active cyclic dione compounds, or derivatives therefor, substituted by a phenyl which has an alkynyl-containing substituent” (Syngenta Limited, priority 2012, dated 2017):

Tests used:
Type in all cases: in vivo
Avena fatua (AVEFA) [1] = assay: Test 1B glasshouse assay for herbicidal activity, pre-emergence; conditions: 480 h, 500 g/ha, 20 DAA, read-out: percentage phytotoxicity AVEFA
Description: (§1) Seeds of a variety of monocotyledonous and dicotyledonous test plants are sown in standard soil in pots. The plants are cultivated for one day (for pre-emergence) or for about 12 days (range=10-13 days) (for post-emergence) under controlled conditions in a glasshouse (warm climate species at 24/18° C., cool climate species at 20/16° C., both at day/night; 16 hours light; 65% humidity).
(§2) An “instant formulation”, known as the “IF50”, containing 50 g/liter (i.e. 5% w/v) of the “technical” (i.e. unformulated) active ingredient is prepared by dissolving the active ingredient in a mixture of organic solvents and emulsifier, details of which are provided in the Table below. This IF50 is then mixed with a small, variable amount of acetone to aid dissolution, before addition of a 0.2% v/v aqueous solution of the adjuvant X-77 (which is a mixture of alkyl aryl polyoxyethylene glycols and free fatty acids in isopropanol, CAS Registry number 11097-66-8), as the aqueous diluent, to form an aqueous spray solution which contains a predetermined concentration of the active ingredient (which varies depending on the application rate of the active ingredient to the plants) and 0.2% v/v of the adjuvant X-77. This aqueous spray solution is then sprayed onto the plants, after one day's cultivation (for pre-emergence) or after about 12 days' cultivation (for post-emergence).
(§3) The test plants are then grown on, in a glasshouse (greenhouse) under controlled conditions (at either 24/18° C. or 20/16° C. (day/night) as mentioned above; 16 hours light; 65% humidity) and are watered twice daily. Either 15 days after application of the herbicide (15 DAA) (for post-emergence), or 20 days after application of the herbicide (20 DAA) (for pre-emergence), the test plants are evaluated visually, and an assessed percentage phytotoxicity score is given for each herbicidal application on each plant species (where 100%=total damage to plant; 0%=no damage to plant).
(§4) Cool climate (“cool season”) grassy monocotyledonous weeds: Alopecurus myosuroides (ALOMY), Avena fatua (AVEFA), Lolium perenne (LOLPE).

Lolium perenne (LOLPE) [2] = assay: as above; conditions: 480 h, 500 g/ha, 20 DAA, read-out: percentage phytotoxicity LOLPE
Description: as §1, §2, §3, §4

[3] = tested on: Alopecurus myosuroides (ALOMY); assay: as above; conditions: 480 h, 500 g/ha, 20 DAA, read-out: percentage phytotoxicity ALOMY
Description: as §1, §2, §3, §4

[4] = tested on: Glycine max (GLXMA, soybean); assay: as above; conditions: 480 h, 500 g/ha, 20 DAA, read-out: percentage phytotoxicity GLXMA
Description: as §1, §2, §3
(§5) Warm climate crop plants: Glycine max (GLXMA, soybean).

Avena fatua (AVEFA) [5] = assay: Test 1B glasshouse assay for herbicidal activity, post-emergence; conditions: 360 h; for pest or weed control at 60 g/ha: 60 g/ha application rate
Description: as §1, §2, §3, §4

Lolium perenne (LOLPE) [6] = assay: as above; conditions: 360 h; for pest or weed control at 60 g/ha: 60 g/ha application rate
Description: as §1, §2, §3, §4

[7] = tested on: Alopecurus myosuroides (ALOMY); assay: as above; conditions: 360 h; for pest or weed control at 60 g/ha: 60 g/ha application rate
Description: as §1, §2, §3, §4

[8] = tested on: Beta vulgaris (BEAVA, sugar beet); assay: as above; conditions: 360 h; for plant injury at 60 g/ha: 60 g/ha application rate
Description: as §1, §2, §3
(§6) Cool climate crop plants: Triticum aestivum (TRZAW, winter wheat), Brassica napus (BRSNN, rape, also called oilseed rape or rapeseed), Beta vulgaris (BEAVA, sugar beet).

[9] = tested on: Triticum aestivum (TRZAW, winter wheat); assay: as above; conditions: 360 h; for plant injury at 60 g/ha: 60 g/ha application rate
Description: as §1, §2, §3, §6

[10] = tested on: Brassica napus (BRSNN, rape); assay: as above; conditions: 360 h; for plant injury at 60 g/ha: 60 g/ha application rate
Description: as §1, §2, §3, §6

Setaria faberi (SETFA) [11] = assay: as above; conditions: 360 h; for pest or weed control at 60 g/ha: 60 g/ha application rate
Description: as §1, §2, §3
(§7) Warm climate (“warm season”) grassy monocotyledonous weeds: Setaria faberi (SETFA), SORVU (Sorghum bicolor (L.) Moench ssp. Bicolor, or Sorghum vulgare Pers.), Digitaria sanguinalis (DIGSA), Echinochloa crus-galli (ECHCG), and Brachiaria plantaginea (BRAPL).

[12] = tested on: SORVU (Sorghum bicolor (L.) Moench ssp. Bicolor, or Sorghum vulgare Pers.); assay: as above; conditions: 360 h; for pest or weed control at 60 g/ha: 60 g/ha application rate
Description: as §1, §2, §3, §7

[13] = tested on: Digitaria sanguinalis (DIGSA); assay: as above; conditions: 360 h; for pest or weed control at 60 g/ha: 60 g/ha application rate
Description: as §1, §2, §3, §7

[14] = tested on: Glycine max (GLXMA, soybean); assay: as above; conditions: 360 h; for plant injury at 60 g/ha: 60 g/ha application rate
Description: as §1, §2, §3, §5

Setaria faberi (SETFA) [15] = assay: Test 1B glasshouse assay for herbicidal activity, pre-emergence; conditions: 480 h, 500 g/ha, 20 DAA, read-out: percentage phytotoxicity SETFA
Description: as §1, §2, §3, §7

[16] = tested on: SORVU (Sorghum bicolor (L.) Moench ssp. Bicolor, or Sorghum vulgare Pers.); assay: as above; conditions: 480 h, 500 g/ha, 20 DAA, read-out: percentage phytotoxicity SORVU
Description: as §1, §2, §3, §7

[17] = tested on: Echinochloa crus-galli (ECHCG); assay: as above; conditions: 480 h, 500 g/ha, 20 DAA, read-out: percentage phytotoxicity ECHCG
Description: as §1, §2, §3, §7

[18] = tested on: Digitaria sanguinalis (DIGSA); assay: as above; conditions: 480 h, 500 g/ha, 20 DAA, read-out: percentage phytotoxicity DIGSA
Description: as §1, §2, §3, §7

Work on CC#Cc1ccc(C2C(=O)C3CCC(C3)C2=O)c(C)c1 (single isomer, unassigned) [Compound A-2] yielded a pest or weed control at 500 g/ha (Avena fatua (AVEFA) [1]) of 80%, a pest or weed control at 500 g/ha (Lolium perenne (LOLPE) [2]) of 100% and a pest or weed control at 500 g/ha [3] of 100%. It also gave a plant injury at 500 g/ha [4] of 0%, a pest or weed control at 60 g/ha (Avena fatua (AVEFA) [5]) of 80% and a pest or weed control at 60 g/ha (Lolium perenne (LOLPE) [6]) of 80%. The pest or weed control at 60 g/ha [7] was 90%, the plant injury at 60 g/ha [8] was 10% and the plant injury at 60 g/ha [9] was 80%. For the same compound, the plant injury at 60 g/ha [10] was 70%, the pest or weed control at 60 g/ha (Setaria faberi (SETFA) [11]) was 100% and the pest or weed control at 60 g/ha [12] was 80%. The pest or weed control at 60 g/ha [13] was 100%, the plant injury at 60 g/ha [14] was 40% and the pest or weed control at 500 g/ha (Setaria faberi (SETFA) [15]) was 90%. For the same compound, the pest or weed control at 500 g/ha [16] was 80%, the pest or weed control at 500 g/ha [17] was 100% and the pest or weed control at 500 g/ha [18] was 100%.

CC#Cc1ccc(C2C(=O)C(C)(C)OC(C)(C)C2=O)c(C)c1 [Compound A-1] gave a pest or weed control at 500 g/ha (Avena fatua (AVEFA) [1]) of 10%, a pest or weed control at 500 g/ha (Lolium perenne (LOLPE) [2]) of 100% and a pest or weed control at 500 g/ha [3] of 70%. It also gave a plant injury at 500 g/ha [4] of 10%, a pest or weed control at 60 g/ha (Avena fatua (AVEFA) [5]) of 60% and a pest or weed control at 60 g/ha (Lolium perenne (LOLPE) [6]) of 80%. It also gave a pest or weed control at 60 g/ha [7] of 80%, a plant injury at 60 g/ha [8] of 30% and a plant injury at 60 g/ha [9] of 80%. It also gave a plant injury at 60 g/ha [10] of 70%, a pest or weed control at 60 g/ha (Setaria faberi (SETFA) [11]) of 70% and a pest or weed control at 60 g/ha [12] of 0%. For the same compound, the pest or weed control at 60 g/ha [13] was 80%, the plant injury at 60 g/ha [14] was 70% and the pest or weed control at 500 g/ha (Setaria faberi (SETFA) [15]) was 50%. The pest or weed control at 500 g/ha [16] was 60%, the pest or weed control at 500 g/ha [17] was 100% and the pest or weed control at 500 g/ha [18] was 60%.

Compound CC#Cc1cc(C)c(C2C(=O)C3CCC(C3)C2=O)c(C)c1 (stereo not drawn) [Compound A-5] has a pest or weed control at 500 g/ha (Avena fatua (AVEFA) [1]) of 40%, a pest or weed control at 500 g/ha (Lolium perenne (LOLPE) [2]) of 100% and a pest or weed control at 500 g/ha [3] of 80%. For the same compound, the plant injury at 500 g/ha [4] was 0%, the pest or weed control at 30 g/ha (Avena fatua (AVEFA) [5]; 30 g/ha application rate) was 30% and the pest or weed control at 60 g/ha (Avena fatua (AVEFA) [5]) was 30%. The pest or weed control at 125 g/ha (Avena fatua (AVEFA) [5]; 125 g/ha application rate) was 80%, the pest or weed control at 500 g/ha (Avena fatua (AVEFA) [5]; 500 g/ha application rate) was 80% and the pest or weed control at 30 g/ha (Lolium perenne (LOLPE) [6]; 30 g/ha application rate) was 30%. It also gave a pest or weed control at 60 g/ha (Lolium perenne (LOLPE) [6]) of 70%, a pest or weed control at 125 g/ha (Lolium perenne (LOLPE) [6]; 125 g/ha application rate) of 80% and a pest or weed control at 500 g/ha (Lolium perenne (LOLPE) [6]; 500 g/ha application rate) of 80%. It also gave a pest or weed control at 30 g/ha ([7]; 30 g/ha application rate) of 70%, a pest or weed control at 60 g/ha [7] of 80% and a pest or weed control at 125 g/ha ([7]; 125 g/ha application rate) of 80%. The pest or weed control at 500 g/ha ([7]; 500 g/ha application rate) was 90%, the plant injury at 30 g/ha ([8]; 30 g/ha application rate) was 40% and the plant injury at 60 g/ha [8] was 40%. It also gave a plant injury at 125 g/ha ([8]; 125 g/ha application rate) of 30%, a plant injury at 500 g/ha ([8]; 500 g/ha application rate) of 30% and a plant injury at 30 g/ha ([9]; 30 g/ha application rate) of 30%. For the same compound, the plant injury at 60 g/ha [9] was 30%, the plant injury at 125 g/ha ([9]; 125 g/ha application rate) was 70% and the plant injury at 500 g/ha ([9]; 500 g/ha application rate) was 80%. It also gave a plant injury at 30 g/ha ([10]; 30 g/ha application rate) of 70%, a plant injury at 60 g/ha [10] of 70% and a plant injury at 125 g/ha ([10]; 125 g/ha application rate) of 80%. For the same compound, the plant injury at 500 g/ha ([10]; 500 g/ha application rate) was 80%, the pest or weed control at 30 g/ha (Setaria faberi (SETFA) [11]; 30 g/ha application rate) was 80% and the pest or weed control at 60 g/ha (Setaria faberi (SETFA) [11]) was 90%. The pest or weed control at 125 g/ha (Setaria faberi (SETFA) [11]; 125 g/ha application rate) was 100%, the pest or weed control at 500 g/ha (Setaria faberi (SETFA) [11]; 500 g/ha application rate) was 100% and the pest or weed control at 30 g/ha ([12]; 30 g/ha application rate) was 70%. The pest or weed control at 60 g/ha [12] was 80%, the pest or weed control at 125 g/ha ([12]; 125 g/ha application rate) was 100% and the pest or weed control at 500 g/ha ([12]; 500 g/ha application rate) was 100%. The pest or weed control at 30 g/ha ([13]; 30 g/ha application rate) was 90%, the pest or weed control at 60 g/ha [13] was 100% and the pest or weed control at 125 g/ha ([13]; 125 g/ha application rate) was 100%. It also gave a pest or weed control at 500 g/ha ([13]; 500 g/ha application rate) of 100%, a plant injury at 30 g/ha ([14]; 30 g/ha application rate) of 10% and a plant injury at 60 g/ha [14] of 20%. For the same compound, the plant injury at 125 g/ha ([14]; 125 g/ha application rate) was 30%, the plant injury at 500 g/ha ([14]; 500 g/ha application rate) was 40% and the pest or weed control at 500 g/ha (Setaria faberi (SETFA) [15]) was 90%. For the same compound, the pest or weed control at 500 g/ha [16] was 90%, the pest or weed control at 500 g/ha [17] was 100% and the pest or weed control at 500 g/ha [18] was 100%.
